From US9079866B2, “Flap modulators” (JANSSEN PHARMACEUTICA NV, priority 2013, dated 2015)
Where two headings read alike, the source gives them in different places.

Key:
[1] = system: leukotriene pathway in human whole blood (LTB4 levels); assay: Human whole blood assay (A23187-stimulated LTB4); assay type: cell-based; settings: Homo sapiens, read-out: LTB4 IC50 1:1
How it was run: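 Compounds are pre-incubated 15 min at 37° Celsius in RPMI-diluted (1:1) heparinised whole blood before a 30 min A23187 stimulus (7 μg/mL). Plasma LTB4 is read by immunoassay kit, with IC50 calculated from a 4-parameter equation.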

[2] = target: human FLAP (Homo sapiens (Human), UniProt P20292); assay: FLAP binding assay (HTRF format); settings: HTRF format
Chain of human FLAP (P20292 whole entry): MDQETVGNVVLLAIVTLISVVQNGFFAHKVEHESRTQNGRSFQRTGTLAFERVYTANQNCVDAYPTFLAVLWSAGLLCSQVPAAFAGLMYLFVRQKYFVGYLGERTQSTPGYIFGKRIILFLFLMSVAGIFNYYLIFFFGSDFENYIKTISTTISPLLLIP
How it was run: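 Samples were run in duplicate on each of two plates and the plate results averaged. Read-out is the HTRF signal ratio.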

[3] = human whole blood diluted 1:1 in RPMI, A23187-stimulated LTB4
[4] = human FLAP wild type, average of two plates, duplicates
[5] = human whole blood diluted 1:1, A23187-stimulated

Row | Compound | IC50 [1, 3] | Ki [2, 4] | IC50 [1, 5] | Ki ([2]; wild type FLAP)
1 | Nc1ccc(-c2ccc(-c3ccccc3S(=O)(=O)N3CCS(=O)(=O)CC3)cc2F)cn1 [Example 354, 4-((4′-(6-Aminopyridin-3-yl)-3′-fluoro-[1,1′-biphenyl]-2-yl)sulfonyl)thiomorpholine 1,1-dioxide] | 93 nM | 37 nM |  | 
2 | Nc1ccc(-c2ccc(-c3ccccc3S(=O)(=O)N3C[C@@H]4C[C@H]3CO4)cc2F)cn1 [Example 356, 5-(2′-((1S,4S)-2-Oxa-5-azabicyclo[2.2.1]heptan-5-ylsulfonyl)-3-fluoro-[1,1′-biphenyl]-4-yl)pyridin-2-amine] | 107 nM | 32 nM |  | 
3 | Nc1ccc(-c2ccc(-c3ccccc3S(=O)(=O)NCC3(O)CNC3)cc2F)cn1 [Example 358, 4′-(6-Aminopyridin-3-yl)-3′-fluoro-N-((3-hydroxyazetidin-3-yl)methyl)-[1,1′-biphenyl]-2-sulfonamide] | > 10000 nM | 55 nM |  | 
4 | C[C@H](CO)NS(=O)(=O)c1ccccc1-c1ccc(-c2cnc3[nH]ccc3c2)c(F)c1 [Example 363, 3′-Fluoro-N-[(1R)-2-hydroxy-1-methylethyl]-4′-(1H-pyrrolo[2,3-b]pyridin-5-yl)biphenyl-2-sulfonamide] | 184 nM | 1 nM |  | 
5 | O=C1NCC[C@@H]1NS(=O)(=O)c1ccccc1-c1ccc(-c2cnc3[nH]ccc3c2)c(F)c1 [Example 364, 3′-Fluoro-N-[(3S)-2-oxopyrrolidin-3-yl]-4′-(1H-pyrrolo[2,3-b]pyridin-5-yl)biphenyl-2-sulfonamide] | 150 nM | 3 nM |  | 
6 | CS(=O)(=O)Nc1ccccc1-c1ccc(-c2cnc3[nH]ccc3n2)c(F)c1 [Example 369, N-[3′-Fluoro-4′-(5H-pyrrolo[2,3-b]pyrazin-2-yl)biphenyl-2-yl]methanesulfonamide] | 375 nM | 17 nM |  | 
7 | CN(C)S(=O)(=O)c1ccccc1-c1ccc(-c2cnc3[nH]ccc3n2)c(F)c1 [Example 370, 3′-Fluoro-N,N-dimethyl-4′-(5H-pyrrolo[2,3-b]pyrazin-2-yl)biphenyl-2-sulfonamide] | 88 nM | 2 nM |  | 
8 | CS(=O)(=O)c1ccccc1-c1ccc(-c2cnc3[nH]ccc3n2)c(F)c1 [Example 377, 2-[3-Fluoro-2′-(methylsulfonyl)biphenyl-4-yl]-5H-pyrrolo[2,3-b]pyrazine] | 979 nM | 33 nM |  | 
9 | NC1CCN(S(=O)(=O)c2ccccc2-c2ccc(-c3cnc4[nH]ccc4n3)c(F)c2)CC1 [Example 381, 1-{[3′-Fluoro-4′-(5H-pyrrolo[2,3-b]pyrazin-2-yl)biphenyl-2-yl]sulfonyl}piperidin-4-amine] | 141 nM | 5 nM |  | 
10 | CS(=O)(=O)c1ccccc1-c1ccc(-c2cnc3c(c2)OCCN3)c(F)c1 [Example 385, 7-[3-Fluoro-2′-(methylsulfonyl)biphenyl-4-yl]-3,4-dihydro-2H-pyrido[3,2-b][1,4]oxazine] | 1080 nM | 42 nM |  | 
11 | NS(=O)(=O)c1ccccc1-c1ccc(-c2cnc3c(c2)OCCN3)c(F)c1 [Example 387, 4′-(3,4-Dihydro-2H-pyrido[3,2-b][1,4]oxazin-7-yl)-3′-fluorobiphenyl-2-sulfonamide] | 253 nM | 8 nM |  | 
12 | CC(C)S(=O)(=O)c1ncccc1-c1ccc(-c2cnc(N)cn2)c(F)c1 [Example 395, 5-(2-Fluoro-4-{2-[(1-methylethyl)sulfonyl]pyridin-3-yl}phenyl)pyrazin-2-amine] |  |  | 32 nM | 9 nM
13 | CC(C)Sc1ncccc1-c1ccc(-c2cnc(N)cn2)c(F)c1 [Example 396, 5-(2-Fluoro-4-{2-[(1-methylethyl)sulfanyl]pyridin-3-yl}phenyl)pyrazin-2-amine] |  |  | 137 nM | 8 nM
14 | CC(C)COc1ncccc1-c1ccc(-c2cnc3[nH]ccc3n2)c(F)c1 [Example 398, 2-{2-Fluoro-4-[2-(2-methylpropoxy)pyridin-3-yl]phenyl}-5H-pyrrolo[2,3-b]pyrazine] |  |  | 1130 nM | 34 nM
15 | CC(C)Oc1ncccc1-c1ccc(-c2cnc3[nH]ccc3n2)c(F)c1 [Example 399, 2-{2-Fluoro-4-[2-(1-methylethoxy)pyridin-3-yl]phenyl}-5H-pyrrolo[2,3-b]pyrazine] |  |  | 358 nM | 28 nM

The remaining lines, values ahead:

Row | IC50 [1, 3] | Ki [2, 4] | IC50 [1, 5] | Ki ([2]; wild type FLAP) | Compound
16 | 29 nM | 5 nM |  |  | C[C@H](NS(=O)(=O)c1ccccc1-c1ccc(-c2ccc(N)nc2)c(F)c1)C(F)(F)F [Example 355, (S)-4′-(6-Aminopyridin-3-yl)-3′-fluoro-N-(1,1,1-trifluoropropan-2-yl)-[1,1′-biphenyl]-2-sulfonamide]
17 | 54 nM | 4 nM |  |  | Nc1ccc(-c2ccc(-c3ccccc3S(=O)(=O)N3CCC(CCO)CC3)cc2F)cn1 [Example 359, 2-(1-((4′-(6-Aminopyridin-3-yl)-3′-fluoro-[1,1′-biphenyl]-2-yl)sulfonyl)piperidin-4-yl)ethanol]
18 | 67 nM | 22 nM |  |  | Nc1ccc(-c2ccc(-c3ccccc3S(=O)(=O)N3CCC(O)CC3)cc2F)cn1 [Example 360, 1-((4′-(6-Aminopyridin-3-yl)-3′-fluoro-[1,1′-biphenyl]-2-yl)sulfonyl)piperidin-4-ol]
19 | 26 nM | 5 nM |  |  | Nc1ccc(-c2ccc(-c3ccccc3S(=O)(=O)N3CCC(CO)CC3)cc2F)cn1 [Example 361, (1-((4′-(6-Aminopyridin-3-yl)-3′-fluoro-[1,1′-biphenyl]-2-yl)sulfonyl)piperidin-4-yl)methanol]
20 | 47 nM | 1 nM |  |  | C[C@@H](CO)NS(=O)(=O)c1ccccc1-c1ccc(-c2cnc3[nH]ccc3c2)c(F)c1 [Example 362, 3′-Fluoro-N-[(1S)-2-hydroxy-1-methylethyl]-4′-(1H-pyrrolo[2,3-b]pyridin-5-yl)biphenyl-2-sulfonamide]
21 | 60 nM | 3 nM |  |  | O=S(=O)(c1ccccc1-c1ccc(-c2cnc3[nH]ccc3c2)c(F)c1)C1CC1 [Example 365, 5-[2′-(Cyclopropylsulfonyl)-3-fluorobiphenyl-4-yl]-1H-pyrrolo[2,3-b]pyridine]
22 | 40 nM | 1 nM |  |  | O=S(=O)(NCCO)c1ccccc1-c1ccc(-c2cnc3[nH]ccc3c2)c(F)c1 [Example 366, 3′-Fluoro-N-(2-hydroxyethyl)-4′-(1H-pyrrolo[2,3-b]pyridin-5-yl)biphenyl-2-sulfonamide]
23 | 6 nM | 1 nM |  |  | CC(C)(C)NS(=O)(=O)c1ccccc1-c1ccc(-c2cnc3[nH]ccc3c2)c(F)c1 [Example 367, N-tert-Butyl-3′-fluoro-4′-(1H-pyrrolo[2,3-b]pyridin-5-yl)biphenyl-2-sulfonamide]
24 | 15 nM | 1 nM |  |  | CC(C)(C)NS(=O)(=O)c1ccccc1-c1ccc(-c2cnc3[nH]ccc3n2)c(F)c1 [Example 371, N-tert-Butyl-3′-fluoro-4′-(5H-pyrrolo[2,3-b]pyrazin-2-yl)biphenyl-2-sulfonamide]
25 | 31 nM | 25 nM |  |  | O=S(=O)(c1ccccc1-c1ccc(-c2cnc3[nH]ccc3n2)c(F)c1)N1CCCC1 [Example 372, 2-[3-Fluoro-2′-(pyrrolidin-1-ylsulfonyl)biphenyl-4-yl]-5H-pyrrolo[2,3-b]pyrazine]
26 | 7 nM | 1 nM |  |  | CCN(CC)S(=O)(=O)c1ccccc1-c1ccc(-c2cnc3[nH]ccc3n2)c(F)c1 [Example 373, N,N-Diethyl-3′-fluoro-4′-(5H-pyrrolo[2,3-b]pyrazin-2-yl)biphenyl-2-sulfonamide]
27 | 11 nM | 1 nM |  |  | O=S(=O)(c1ccccc1-c1ccc(-c2cnc3[nH]ccc3n2)c(F)c1)N1CCCCC1 [Example 374, 2-[3-Fluoro-2′-(piperidin-1-ylsulfonyl)biphenyl-4-yl]-5H-pyrrolo[2,3-b]pyrazine]
28 | 31 nM | 2 nM |  |  | O=S(=O)(c1ccccc1-c1ccc(-c2cnc3[nH]ccc3n2)c(F)c1)N1CCOCC1 [Example 375, 2-[3-Fluoro-2′-(morpholin-4-ylsulfonyl)biphenyl-4-yl]-5H-pyrrolo[2,3-b]pyrazine]
29 | 33 nM | 1 nM |  |  | CNS(=O)(=O)c1ccccc1-c1ccc(-c2cnc3[nH]ccc3n2)c(F)c1 [Example 379, 3′-Fluoro-N-methyl-4′-(5H-pyrrolo[2,3-b]pyrazin-2-yl)biphenyl-2-sulfonamide]
30 | 77 nM | 2 nM |  |  | O=S(=O)(c1ccccc1-c1ccc(-c2cnc3c(c2)OCCN3)c(F)c1)N1CCCCC1 [Example 386, 7-[3-Fluoro-2′-(piperidin-1-ylsulfonyl)biphenyl-4-yl]-3,4-dihydro-2H-pyrido[3,2-b][1,4]oxazine]
31 | 37 nM | 2 nM |  |  | C[C@@H](CO)NS(=O)(=O)c1ccccc1-c1ccc(-c2cnc3c(c2)OCCN3)c(F)c1 [Example 388, 4′-(3,4-Dihydro-2H-pyrido[3,2-b][1,4]oxazin-7-yl)-3′-fluoro-N-[(1S)-2-hydroxy-1-methylethyl]biphenyl-2-sulfonamide]
32 | 56 nM | 2 nM |  |  | CCN(CC)S(=O)(=O)c1ccccc1-c1ccc(-c2cnc3c(c2)OCCN3)c(F)c1 [Example 391, 4′-(3,4-Dihydro-2H-pyrido[3,2-b][1,4]oxazin-7-yl)-N,N-diethyl-3′-fluorobiphenyl-2-sulfonamide]
33 | 16 nM | 1 nM |  |  | O=S1(=O)CCN(S(=O)(=O)c2ccccc2-c2ccc(-c3cnc4c(c3)OCCN4)c(F)c2)CC1 [Example 392, 7-{2′-[(1,1-Dioxidothiomorpholin-4-yl)sulfonyl]-3-fluorobiphenyl-4-yl}-3,4-dihydro-2H-pyrido[3,2-b][1,4]oxazine]
34 | 12 nM | 1 nM |  |  | CC(C)(C)NS(=O)(=O)c1ccccc1-c1ccc(-c2cnc3c(c2)OCCN3)c(F)c1 [Example 393, N-tert-Butyl-4′-(3,4-dihydro-2H-pyrido[3,2-b][1,4]oxazin-7-yl)-3′-fluorobiphenyl-2-sulfonamide]
